# Test results: paper PMC7408493, “Implication of Opioid Receptors in the Antihypertensive Effect of a Novel Chicken Foot-Derived Peptide” (Biomolecules, 2020)
# Ends that are not written are not given here.
# Columns and labels:
# [1] = Peptide presence in plasma after oral administration; format: in vivo; details: Wistar rats, 10 mg/kg bw oral, plasma at 0, 30 and 60 min, pooled n = 6, SPE extraction, UHPLC-MS/MS (limit of detection 0.05 ppb) and UHPLC-HRMS
# Protocol: Male Wistar rats (17–20 weeks-old, weighing between 230 and 250 g) were obtained from Charles River Laboratories (Barcelona, Spain). Animals were maintained in pairs, at 22 °C with light/dark cycles of 12 h and were fed standard chow diet (AO4, Panlab, Barcelona, Spain) ad libitum during all the experiment. Animals were randomly divided and administered tap water (control group, n = 6) or 10 mg/kg body weight (bw) peptide ([…] group, n = 6) by gastric intubation after starvation of 12 h. The total volume of water or […] orally administered to the rats was 1 mL. […]
# Solid-phase extraction (SPE): Plasma samples (150 µL) were mixed with 25 µL of IFV*[…] […] Eluted samples were dried in a speed-vac concentrator (Thermo Fisher, Waltham, Massachusetts), USA), reconstituted in 100 µL of water (0.1 % FA and 0.1 % BSA), and analyzed by UHPLC-MS/MS. […]
# The obtained purified solutions from plasma and peptide digests G60 and D60 and from AP and BL chambers in Caco-2 experiment were analyzed using a UHPLC 1290 Infinity II Series coupled to a QqQ 6490 Series (Agilent Technologies, Santa Clara, CA, USA) for tandem mass experiments or a qTOF 6550 Series (Agilent Technologies) for high-resolution mass spectrometry experiments. […]
# porcine pepsin = target: T1, porcine pepsin (Sus scrofa, UniProt P00791); test: In vitro simulated gastric digestion (G60); format: in vitro ADME; details: 60 min
# T1 construct: purchased Sigma-Aldrich (Madrid, Spain)
# T1 sequence (P00791 60-385): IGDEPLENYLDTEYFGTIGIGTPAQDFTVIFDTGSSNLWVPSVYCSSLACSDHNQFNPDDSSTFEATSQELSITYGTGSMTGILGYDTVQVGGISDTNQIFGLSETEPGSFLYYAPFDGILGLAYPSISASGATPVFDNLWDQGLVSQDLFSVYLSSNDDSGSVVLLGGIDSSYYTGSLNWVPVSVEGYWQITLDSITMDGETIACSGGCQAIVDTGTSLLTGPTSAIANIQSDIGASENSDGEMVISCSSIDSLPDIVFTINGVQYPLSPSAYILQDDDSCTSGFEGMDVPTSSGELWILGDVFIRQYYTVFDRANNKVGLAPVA
# Protocol: For the in vitro simulated peptide GI digestion, a two-stage hydrolysis process was carried out according to Martos et al.. […] was dissolved in simulated gastric fluid (35 mM NaCl at pH 2 for 15 min) and posteriorly subjected to digestion by porcine pepsin (E.C. 3.4.23.1, 3440 units/mg) at an enzyme/substrate ratio of 1: 20 w/w at 37 °C for 60 min. Gastric digestion with pepsin was stopped by adding 1 M NaHCO3 and pH was adjusted to 7.0 with NaOH 1 M (final protein concentration of 5 mg/mL). Aliquots of this gastric digest were collected (G60) and stored at −20 °C until analysis. Duodenal digestions were performed by using, as the starting material, the obtained gastric digests, with the addition of 1 M CaCl2, 0.25 M bis-Tris pH 6.5, 0.25 M bis-Tris pH 6.5, and a 0.125 M bile salts mixture containing equimolar quantities of sodium taurocholate and glycodeoxycholic acid. Posteriorly, the duodenal enzymes trypsin (EC 232-650-8, 10100 BAEE units/mg protein), α-chymotrypsin (EC 232-671-2; 55 units/mg protein), porcine pancreatic lipase (EC 232-619-9) and colipase (EC 259-490-1), prepared in 35 mM NaCl adjusted to pH 7, were added to the solution. Duodenal digestion was carried out at pH 7, 37 °C during 60 (D60). Then, enzymes were inactivated by heating at 95 °C for 10 min in a water bath, followed by cooling to room temperature. Triplicates of aliquots at each time point were collected and stored at −20 °C until analysis.
# Samples obtained from in vitro peptide simulated digestion and Caco-2 monolayers were diluted 10 times with water (0.1% FA) and centrifuged (15,000 rpm, 15 min, 4 °C). Supernatants were directly analyzed by UHPLC-HRMS to avoid the loss of polar peptide fragments. Extensive clean-up or pre-concentration procedures were not necessary due to the high concentration of peptide and low matrix complexity than plasma samples.
# The obtained purified solutions from plasma and peptide digests G60 and D60 and from AP and BL chambers in Caco-2 experiment were analyzed using a UHPLC 1290 Infinity II Series coupled to a QqQ 6490 Series (Agilent Technologies, Santa Clara, CA, USA) for tandem mass experiments or a qTOF 6550 Series (Agilent Technologies) for high-resolution mass spectrometry experiments. Chromatographic separation of peptide or their fragments were performed using a Kinetex 2.6 µm EVO C18 column (150 × 2.1 mm, […]) from (Phenomenex, Torrance, USA) as stationary phase and water containing 0.1% formic acid (solvent A) and acetonitrile (solvent B) as mobile phase. The separation was performed in gradient elution as follows: isocratic; 0–0.5 min, 2 % B; 0.5–1 min, 2–6% B; 1–5 min, 6–15% B; 5–6 min, 15–35% B; 6–10 min, 35–98% B; 10–12 min, 98% B isocratic; 12–12.10, 98–2% B. For all runs, 10 μL of the sample (4 °C) was injected, and the flow rate was 0.350 mL/min and the column temperature was 25 °C.
# For in vitro simulated digestion experiments and Caco-2 monolayer samples, qTOF instrument was used to investigate the presence of unknown peptide fragments and previously in silico predicted peptide fragments by means of its accurate mass. Peptide and its fragments were semi-quantified using the chromatographic peak area observed in the extracted ion chromatograms using a 20 ppm mass window.
# [2] = test system: trypsin, α-chymotrypsin, porcine pancreatic lipase and colipase; test: In vitro simulated duodenal digestion (D60); format: in vitro ADME; details: 60 min simulated duodenal digestion, pH 7, 37 °C
# Protocol: For the in vitro simulated peptide GI digestion, a two-stage hydrolysis process was carried out according to Martos et al.. […] was dissolved in simulated gastric fluid (35 mM NaCl at pH 2 for 15 min) and posteriorly subjected to digestion by porcine pepsin (E.C. 3.4.23.1, 3440 units/mg) at an enzyme/substrate ratio of 1: 20 w/w at 37 °C for 60 min. Gastric digestion with pepsin was stopped by adding 1 M NaHCO3 and pH was adjusted to 7.0 with NaOH 1 M (final protein concentration of 5 mg/mL). Aliquots of this gastric digest were collected (G60) and stored at −20 °C until analysis. Duodenal digestions were performed by using, as the starting material, the obtained gastric digests, with the addition of 1 M CaCl2, 0.25 M bis-Tris pH 6.5, 0.25 M bis-Tris pH 6.5, and a 0.125 M bile salts mixture containing equimolar quantities of sodium taurocholate and glycodeoxycholic acid. […]
# Samples obtained from in vitro peptide simulated digestion and Caco-2 monolayers were diluted 10 times with water (0.1% FA) and centrifuged (15,000 rpm, 15 min, 4 °C). Supernatants were directly analyzed by UHPLC-HRMS to avoid the loss of polar peptide fragments. […]
sequence,measurement,setting,value
AVFQHNCQE,Presence of peptide or fragments in plasma,[1],neither the peptide nor their potential fragments were identified in the plasma samples
same,Resistance to gastric digestion,"porcine pepsin; pepsin, pH 2, 37 °C, most intense signal in G60 was the native peptide",resistant to gastric digestion
same,Area G60 (chromatographic peak area),"porcine pepsin; simulated gastric fluid 35 mM NaCl pH 2, porcine pepsin enzyme/substrate 1:20 w/w, 37 °C, UHPLC-HRMS extracted ion chromatogram, 20 ppm window, semi-quantified, triplicate aliquots","5,236,186"
same,Fate after duodenal digestion,[2],mainly hydrolyzed into free amino acid residues
